One experiment has as its system E. coli (1956). The experiment in a line: MIC determination by microplate dilution, E. coli animal strain. The class given is cell-based, Escherichia coli. The conditions noted are these: Escherichia coli, Gram-negative, Mueller-Hinton medium, 24 h, 37° C. As to the method: (§1) 1) Preparation of the Preculture
(§2) A negative control (2 mL of sterile culture medium)
(§3) A positive control (1940 μL of culture medium+40 μL of DMSO+20 μL of bacterial suspension) from a thawed biological strain (the biological strains are stored at −80° C. in glycerol).
(§4) The tubes were incubated at 37° C. for 24 hours at 100 rpm.
(§5) The microorganisms were handled under a type L2 laboratory fume cupboard and, before any handling, a UV cycle was programmed and only sterile material was used. […] The chemical compounds to be tested were prepared in a DMSO/methanol mixture (50/50) at a concentration of 5 mg/mL.
(§6) 2) Preparation of the Microplate for the Determination of the Minimum Inhibitory Concentration (MIC)
(§7) After 24 hours of incubation, a measurement of the optical density was taken using a spectrophotometer at 600 nm, collecting 100 μL of the bacterial suspension diluted in 900 μL of the sterile culture medium. This test required the use of a 96-well plate and the required volume of the microbial suspension to be seeded was calculated for an OD corresponding to a value equal to 0.01 in each well. In this plate, the first line corresponded to the negative control (195 μL of sterile culture medium in each well), the second line to the positive control (seeded culture medium supplemented with 2% of DMSO), the third line was loaded twice with bacterial suspension, 8 μL of test product were placed in each well. Thereafter, a 0.5 cascade dilution was performed from this line.
(§8) The first column served as inhibition control. A sterile filter was then placed on the microplate, allowing the passage of gases but not of contaminants. The microplate was incubated at 37° C. under a humid atmosphere for 24 hours.
(§9) NB: The medium used is Mueller-Hinton (MH) medium for bacteria. All the tests were performed in duplicate.
(§10) 4) Reading of the Results
(§11) After incubation, the filter was replaced with a transparent film, and an OD reading was then taken in an iEMS plate spectrophotometer at 620 nm. Calculation of the minimum inhibitory concentration (MIC) was performed.

The next experiment deals with S. intermedius (1051997). The experiment in a line: MIC determination by microplate dilution, S. intermedius animal strain. The class given is cell-based, Staphylococcus intermedius. The conditions noted are these: Staphylococcus intermedius, Gram-positive, Mueller-Hinton medium, 24 h, 37° C. As to the method: as §1, §2, §3, §4, §5, §6, §7, §8, §9, §10, §11
For experiment [1], the system named is P. aeruginosa (1051575). The experiment in a line: MIC determination by microplate dilution, P. aeruginosa animal strain. The class given is cell-based, Pseudomonas aeruginosa. The conditions noted are these: Pseudomonas aeruginosa, Gram-negative, Mueller-Hinton medium, 24 h, 37° C. How it is done: as §1, §2, §3, §4, §5, §6, §7, §8, §9, §10, §11
Another experiment concerns E. coli ATCC28922. The experiment is described as follows: MIC determination by microplate dilution, E. coli human strain. Format: cell-based, Escherichia coli. The note with it: Escherichia coli, ATCC28922, Gram-negative, Mueller-Hinton medium, 24 h, 37° C. As to the method: as §1, §2, §3, §4, §5, §6, §7, §8, §9, §10, §11
A further experiment concerns S. aureus (340). The experiment in a line: MIC determination by microplate dilution, S. aureus animal strain. The class given is cell-based, Staphylococcus aureus. The conditions noted are these: Staphylococcus aureus, Gram-positive, Mueller-Hinton medium, 24 h, 37° C. As to the method: as §1, §2, §3, §4, §5, §6, §7, §8, §9, §10, §11
The next experiment relates to CHO-K1 cells. The experiment is described as follows: WST1 cytotoxicity test on CHO-K1 cells. The class given is cell-based, Chinese hamster. The note with it: Cricetulus griseus, read-out: IC50 (μg/mL) CHO. How it is done:
Test WST1 was used to measure the cytotoxic activity of the products. This is a colorimetric test which makes it possible to measure the viability and the degree of cell proliferation. It is based on cleavage of the colorless tetrazolium salts WST-1 (4-[3-(4-iodophenyl)-2-(4-nitrophenyl)-2H-5-tetrazolio]-1,3-benzene disulfonate) with mitochondrial dehydrogenases to the yellow-colored formazan derivative, which may be quantified by spectrophotometry at 420-480 nm.
The WST1 test was performed on Chinese hamster ovary cells. The CHO-K1 cells (ATCC, USA) are kept in culture on McCoy's 5A medium supplemented with 10% fetal calf serum, 2 mM of L-glutamine and a mixture of penicillin-streptomycin (100 U/ml: 10 μg/mL). The culture is incubated at 37° C. under an atmosphere enriched in CO2 (5%), and subcultured every two days.
The cells are transferred into 96-well plates (25 000 cells/mL) in whole McCoy's 5A medium, and maintained for 24 hours at 37° C. under a humid atmosphere enriched in CO2 (5%). Increasing concentrations of test products are added to the wells in double tests and 8 growth controls containing the cells in the medium alone are included in each series of tests. After 24 hours at 37° C. (5% CO2), the culture medium is removed, the cells are rinsed in phosphate buffer (PBS) and 50 μL of PBS containing 10% of reagent WST1 are added to each well. After 20 minutes of incubation at 37° C., the results are read by spectrophotometry at 450 nm.
The results are expressed in dose-response relationships, modeled by nonlinear regression analysis using the TableCurve software. The 50% inhibitory concentration (IC50) represents the concentration of product that is capable of reducing the cell viability by 50%.

A further experiment has as its system E. faecalis ATCC29212. The experiment is described as follows: MIC determination by microplate dilution, E. faecalis human strain. The conditions noted are these: Enterococcus faecalis, ATCC29212, Gram-positive, Mueller-Hinton medium, 24 h, 37° C. Format: cell-based, Enterococcus faecalis. How it is done: as §1, §2, §3, §4, §5, §6, §7, §8, §9, §10, §11

The next experiment concerns P. aeruginosa ATCC27853. The experiment is described as follows: MIC determination by microplate dilution, P. aeruginosa human strain. The class given is cell-based, Pseudomonas aeruginosa. The conditions noted are these: Pseudomonas aeruginosa, ATCC27853, Gram-negative, Mueller-Hinton medium, 24 h, 37° C. How it is done:
as §1, §2, §3, §4, §5, §6, §7, §8, §9, §10, §11

For another experiment, the system named is S. aureus ATCC25923. The experiment is described as follows: MIC determination by microplate dilution, S. aureus human strain. Format: cell-based, Staphylococcus aureus. The conditions noted are these: Staphylococcus aureus, ATCC25923, Gram-positive, Mueller-Hinton medium, 24 h, 37° C. As to the method: as §1, §2, §3, §4, §5, §6, §7, §8, §9, §10, §11

Experiment [2] deals with P. aeruginosa (1051575). The experiment in a line: Potentiation of the doxycycline activity at 2 μg/mL. Format: cell-based, Pseudomonas aeruginosa. The note with it: in combination with doxycycline 2 μg/mL; 24 h, 37°.
Where [3] appears, read: Table III, WST1, CHO-K1 cells, 24 h, concentration reducing cell viability by 50%.

Each structure is given as a SMILES string. Converted amounts (≈) assume the structure as drawn. Where two headings read alike, the source gives them in different places.

One may read the MIC as the least concentration at which growth counts as inhibited. Regarding `COC(=O)CC[C@@H](C)[C@H]1CCC2C3CCC4C[C@@H](NCCCN(C)CCCN)CC[C@]4(C)C3CC[C@@]21C` (stereo partly drawn) [(45), methyl 3β-(bis(3-aminopropyl)methylamine)lithocholate], the MIC in the experiment with E. coli (1956) worked out at 6 µg/mL (≈ 11.6 µM); in the experiment on S. intermedius (1051997), 3 µg/mL (≈ 5.79 µM); in the experiment on P. aeruginosa (1051575) [1], 26 µg/mL (≈ 50.2 µM); in the experiment on E. coli ATCC28922, 26 µg/mL (≈ 50.2 µM); in the experiment on S. aureus (340), 6 µg/mL (≈ 11.6 µM); against E. faecalis ATCC29212 it was 12 µg/mL (≈ 23.2 µM). The results for the MIC against P. aeruginosa ATCC27853 and against S. aureus ATCC25923 were 26 µg/mL (≈ 50.2 µM) and 12 µg/mL (≈ 23.2 µM), respectively. In the experiment on CHO-K1 cells (setting [3]), the IC50 is 46 µg/mL (≈ 88.8 µM).

`COC(=O)CC[C@@H](C)[C@H]1CCC2C3CCC4C[C@@H](NCCCN(CCCN)CCCN)CC[C@]4(C)C3CC[C@@]21C` (stereo partly drawn) [(46), methyl 3β-(tris(3-aminopropyl)amine)lithocholate]: the minimum inhibitory concentration (MIC) is 28 µg/mL (≈ 49.9 µM) in the experiment with E. coli (1956); 4 µg/mL (≈ 7.13 µM) in the experiment on S. intermedius (1051997); 28 µg/mL (≈ 49.9 µM) in the experiment on P. aeruginosa (1051575) [1]; 56 µg/mL (≈ 99.8 µM) against E. coli ATCC28922; 7 µg/mL (≈ 12.5 µM) in the experiment with S. aureus (340); 14 µg/mL (≈ 25 µM) in the experiment on E. faecalis ATCC29212. The MIC was determined as 28 µg/mL (≈ 49.9 µM) in the experiment on P. aeruginosa ATCC27853 and 14 µg/mL (≈ 25 µM) against S. aureus ATCC25923. The IC50 in the experiment with CHO-K1 cells (setting [3]) came to 30 µg/mL (≈ 53.5 µM).

Take `COC(=O)CC[C@@H](C)[C@H]1CCC2C3C(C[C@H](O)[C@@]21C)[C@@]1(C)CC[C@H](NCCCNCCCN)C[C@H]1C[C@H]3O` (stereo partly drawn) [Compound (5), methyl 3β-norspermidinocholate]: the MIC was 27 µg/mL (≈ 50.4 µM) with E. coli (1956); 2 µg/mL (≈ 3.73 µM) against S. intermedius (1051997); 14 µg/mL (≈ 26.1 µM) in the experiment with E. coli ATCC28922; 7 µg/mL (≈ 13.1 µM) against S. aureus (340); 3 µg/mL (≈ 5.6 µM) against E. faecalis ATCC29212; 7 µg/mL (≈ 13.1 µM) against P. aeruginosa ATCC27853. Also, 3 µg/mL (≈ 5.6 µM) was the least that counted as inhibitory against S. aureus ATCC25923 (MIC).

Consider `COC(=O)CC[C@@H](C)[C@H]1CCC2C3C(CC[C@@]21C)[C@@]1(C)CC[C@H](NCCCNCCCNCCCN)CC1C[C@H]3O` (stereo partly drawn) [Compound (8), methyl 3β-norsperminochenodeoxycholate], for which the MIC against E. coli (1956) stood at 29 µg/mL (≈ 50.3 µM); with S. intermedius (1051997), 2 µg/mL (≈ 3.47 µM); in the experiment with P. aeruginosa (1051575) [1], 7 µg/mL (≈ 12.1 µM); against E. coli ATCC28922, 15 µg/mL (≈ 26 µM); in the experiment with S. aureus (340), 4 µg/mL (≈ 6.93 µM); in the experiment on S. aureus ATCC25923, 4 µg/mL (≈ 6.93 µM). Also, the “MIC - P. aeruginosa (1051575): content of compound of formula (I) to restore the doxycycline activity (at 2 μg/mL)” value in the experiment on P. aeruginosa (1051575) [2] came out at 1 µg/mL. In addition, the IC50 in the experiment with CHO-K1 cells (CHO-K1, 24 h) stood at 22 µg/mL (≈ 38.1 µM).

Regarding `CC(C)OC(=O)CC[C@@H](C)[C@H]1CCC2C3CCC4C[C@@H](NCCCNCCCNCCCN)CC[C@]4(C)C3CC[C@@]21C` (stereo partly drawn) [Compound (15), isopropyl 3β-norsperminolithocholate], the MIC was determined as 7 µg/mL (≈ 11.9 µM) with E. coli (1956); 1 µg/mL (≈ 1.7 µM) in the experiment on S. intermedius (1051997); 2 µg/mL (≈ 3.4 µM) with P. aeruginosa (1051575) [1]; 14 µg/mL (≈ 23.8 µM) in the experiment on E. coli ATCC28922; 7 µg/mL (≈ 11.9 µM) in the experiment with S. aureus (340); 7 µg/mL (≈ 11.9 µM) in the experiment on S. aureus ATCC25923. For the same molecule, in the experiment on P. aeruginosa (1051575) [2], the “MIC - P. aeruginosa (1051575): content of compound of formula (I) to restore the doxycycline activity (at 2 μg/mL)” value is 2 µg/mL. Further, in the experiment with CHO-K1 cells (CHO-K1, 24 h), the IC50 was determined as 15 µg/mL (≈ 25.5 µM).

With `COC(=O)CC[C@@H](C)[C@H]1CCC2C3CCC4C[C@@H](NCCCNCCCNCCCN)CC[C@]4(C)C3CC[C@@]21C` (stereo partly drawn) [Compound (17), methyl 3β-norsperminolithocholate], the MIC in the experiment with E. coli (1956) came to 7 µg/mL (≈ 12.5 µM); with S. intermedius (1051997), 4 µg/mL (≈ 7.13 µM); in the experiment with P. aeruginosa (1051575) [1], 7 µg/mL (≈ 12.5 µM); in the experiment on E. coli ATCC28922 it was 28 µg/mL (≈ 49.9 µM); against S. aureus (340), 4 µg/mL (≈ 7.13 µM); in the experiment on E. faecalis ATCC29212 it was 4 µg/mL (≈ 7.13 µM). In addition, the MIC with P. aeruginosa ATCC27853 turned out to be 28 µg/mL (≈ 49.9 µM); against S. aureus ATCC25923, 16 µg/mL (≈ 28.5 µM). Further, in the experiment with CHO-K1 cells (setting [3]), the IC50 was determined as 14 µg/mL (≈ 25 µM).

The values are drawn from patent US20190255073A1, “ESTERS OF 3-POLYAMINE DERIVATIVES OF BILE ACIDS FOR THE TREATMENT OF INFECTIONS” (VIRBAC, priority 2016, published 2019).
